In patent publication EP2857388A1, “Azoles containing sulfone” (Grünenthal GmbH, priority 2013, dated 2015):

Target: T1, human B1R (Homo sapiens, UniProt P46663)
T1 construct: expressed in transfected cells; host or cells: CHO K1 cells (Chinese Hamster Ovary), stably transfected
T1 sequence (P46663 1-353): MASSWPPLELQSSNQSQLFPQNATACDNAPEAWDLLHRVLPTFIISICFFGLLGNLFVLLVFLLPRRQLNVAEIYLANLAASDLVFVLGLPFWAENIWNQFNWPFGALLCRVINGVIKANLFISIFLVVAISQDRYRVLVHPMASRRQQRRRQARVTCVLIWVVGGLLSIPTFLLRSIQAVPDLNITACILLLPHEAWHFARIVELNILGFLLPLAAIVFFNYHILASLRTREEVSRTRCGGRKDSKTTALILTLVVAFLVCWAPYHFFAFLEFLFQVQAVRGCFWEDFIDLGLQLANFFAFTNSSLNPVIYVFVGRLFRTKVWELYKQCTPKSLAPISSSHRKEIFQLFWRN
Assay: Functional assay at bradykinin receptor 1 (B1R): Ca2+ fluorescence (Fluo-4) in FLIPR/Novostar, antagonist mode
Format: cell-based
Settings: test substance 10 µM, CHO K1 cells stably transfected with human B1R gene (hB1R-Zellen), agonist Lys-Des-Arg9-Bradykinin at EC80, % inhibition relative to maximal achievable inhibition; for inhibition at 10 µM: read-out: % Inhibierung (human B1R) bei 10 µM
Experimental: Die agonistische bzw. antagonistische Wirkung von Substanzen kann am Bradykinin Rezeptor 1 (B1R) der Spezies Mensch und Ratte mit ektopisch exprimierenden Zelllinien (CHO K1 Zellen) und mit Hilfe eines Ca^2+-sensitiven Farbstoffs (Fluo-4) im Fluorescent Imaging Plate Reader (FLIPR) quantifiziert werden. Die Angabe in % Aktivierung wird bezogen auf das Ca^2+-Signal nach Zugabe von Lys-Des-Arg^9-Bradykinin ([…]), bzw. Des-Arg^9-Bradykinin (100 nM). Antagonisten führen zu einer Unterdrückung des Ca^2+-Einstroms nach der Zugabe des Agonisten. Angegeben werden % Inhibition im Vergleich zu der maximal erreichbaren Inhibition.
Die agonistische bzw. antagonistische Wirkung von Substanzen kann am Bradykinin Rezeptor 1 (B1R) der Spezies Mensch und Ratte mit folgendem Assay bestimmt werden. Gemäß diesem Assay wird der intrazelluläre Ca^2+-Anstieg nach Gabe eines B1 R Agonisten mit Hilfe eines Ca^2+-sensitiven Farbstoffs (Typ Fluo-4, Molecular Probes Europe BV, Leiden NL) im Fluorescent Imaging Plate Reader (FLIPR, Molecular Devices, Sunnyvale, USA) und/oder im Novostar (BMG Labtech GmbH, Offenburg, DE) quantifiziert.
Es werden Chinese Hamster Ovary Zellen (CHO K1 Zellen) verwendet, die stabil mit dem humanen B1 R-Gen (hB1R-Zellen) bzw. dem B1 R-Gen der Ratte (rB1R-Zellen) transfiziert sind. Für funktionelle Untersuchungen werden diese Zellen auf schwarze 96-Loch-Platten mit klarem Boden (BD Biosciences, Heidelberg, DE oder Greiner, Frickenhausen, DE) in einer Dichte von 20.000 - 35.000 Zellen/Loch ausplattiert. Über Nacht werden die Zellen bei 37°C und 5 % CO2 in Kulturmedium (hB1 R-Zellen: Nutrient Mixture Ham's F12, Gibco Invitrogen GmbH, Karlsruhe, Deutschland oder DMEM, Sigma-Aldrich, Taufkirchen, Deutschland; rB1R-Zellen: D-MEM/F12, Gibco Invitrogen GmbH, Karlsruhe, DE) mit 10 Vol-% FBS (Fetal bovine serum, Gibco Invitrogen GmbH, Karlsruhe, DE oder PAN Biotech GmbH, Aidenbach, DE) belassen. Am folgenden Tag werden die Zellen mit 2,13 µM Fluo-4 (Molecular Probes Europe BV, Leiden, NL) in HBSS-Puffer (Hank's buffered saline solution, Gibco Invitrogen GmbH, Karlsruhe, DE) mit 2,5 mM Probenecid (Sigma-Aldrich, Taufkirchen, DE) und 10 mM HEPES (Sigma-Aldrich, Taufkirchen, DE) für 60 min bei 37°C beladen. Anschließend werden die Platten 2 x mit HBSS-Puffer gewaschen und mit HBSS-Puffer versetzt, der zusätzlich 0,1 % BSA (bovines Serumalbumin; Sigma-Aldrich, Taufkirchen, Deutschland), 5,6 mM Glucose und 0,05 % Gelatine (Merck KGaA, Darmstadt, DE) enthält. Nach einer weiteren Inkubation von 20 Minuten bei RT werden die Platten zur Ca^2+-Messung im FLIPR oder Novostar eingesetzt. Alternativ wird mit Puffer A (15 mM HEPES, 80 mM NaCl, 5 mM KCI, 1,2 mM CaCl2, 0,7 mM MgSO4, 2g/L Glucose, 2,5 mM Probenecid) gewaschen und mit Puffer A versetzt mit 2,5 µM Fluo-4 und 0,025 % Pluronic F127 (Sigma-Aldrich, Taufkirchen, DE) beladen. Danach werden die Zellen 2 x mit Puffer A gewaschen und für 30 Minuten mit Puffer A, der zusätzlich 0,05 % BSA und 0,05 % Gelatine enthält bei RT inkubiert und danach zur Ca^2+-Messung im FLIPR oder Novostar eingesetzt.
Die Ca^2+-abhängige Fluoreszenz wird dabei vor und nach Zugabe von Substanzen gemessen (λex = 488 nm, λem = 540 nm). Die Quantifizierung erfolgt durch die Messung der höchsten Fluoreszenzintensität (FC, Fluorescence Counts) über die Zeit.
Das FLIPR-Protokoll besteht aus 2 Substanzzugaben, die im FLIPR pipettiert werden. Bei Messungen im Novostar wird nur die zweite Substanzzugabe im Gerät pipettiert. Beide Geräte messen die Fluoreszenzintensität über die Zeit. Zunächst werden Testsubstanzen (10 µM) auf die Zellen pipettiert und der intrazelluläre Ca^2+-Anstieg mit der Kontrolle (hB1 R: Lys-Des-Arg^9-Bradykinin >= 50 nM; rB1 R: Des-Arg^9-Bradykinin >= 1 µM) verglichen. Daraus ergibt sich die Angabe in % Aktivierung bezogen auf das Ca^2+-Signal nach Zugabe von Lys-Des-Arg^9-Bradykinin (>= 50 nM), bzw. Des-Arg^9-Bradykinin (>=1 µM). Nach 6-20 Minuten Inkubation werden Lys-Des-Arg^9-Bradykinin (hB1 R) bzw. […]

Molecule | inhibition at 10 µM [%] | % Inhibierung (human B1R) bei 10 µM [%]
Cc1cccc(Cl)c1S(=O)(=O)Cc1noc(C(=O)NC2CCN(c3ccc(C(F)(F)F)cn3)CC2)n1 [CC-09, 3-[[(2-Chlor-6-methyl-phenyl)sulfonyl]-methyl]-N-[1-[5-(trifluormethyl)-pyridin-2-yl]-piperidin-4-yl]-[1,2,4]oxadiazol-5-carbonsäure amid] | 54 | 
COc1cc(C)c(S(=O)(=O)Cc2noc(C(=O)N[C@H]3CCC[C@@H](N4CCN(C)CC4)C3)n2)c(C)c1 [CC-01, 3-[[(4-Methoxy-2,6-dimethyl-phenyl)sulfonyl]-methyl]-N-[(1S,3R)-3-(4-methyl-piperazin-1-yl)-cyclohexyl]-[1,2,4]oxadiazol-5-carbonsäure amid] | 100 | 
COc1cc(C)c(S(=O)(=O)Cc2noc(CC(=O)N3CCN(Cc4ccc(OC)nc4)CC3)n2)c(C)c1 [SC-51, 2-[3-[[(4-Methoxy-2,6-dimethyl-phenyl)sulfonyl]-methyl]-[1,2,4]oxadiazol-5-yl]-1-[4-[(6-methoxy-pyridin-3-yl)-methyl]-piperazin-1-yl]-ethanon] | 100 | 
2-[3-[[(2-Chlor-6-methyl-phenyl)sulfonyl]-methyl]-[1,2,4]oxadiazol-5-yl]-N-(3,3-dimethyl-piperidin-4-yl)-acetamid [CC-120] |  | 98
COCCN1CCC(NC(=O)Cc2nnc(CS(=O)(=O)c3c(C)cc(OC)cc3C)o2)C(C)(C)C1 (stereo not shown) [CC-31, 2-[5-[[(4-Methoxy-2,6-dimethyl-phenyl)sulfonyl]-methyl]-[1,3,4]oxadiazol-2-yl]-N-[1-(2-methoxy-ethyl)-3,3-dimethyl-piperidin-4-yl]-acetamid] | 100 | 
COCCN1CCC(NC(=O)Cn2cc(CS(=O)(=O)c3c(C)cc(OC)cc3C)nn2)C(C)(C)C1 (stereo not shown) [CC-160, 2-[4-[[(4-Methoxy-2,6-dimethyl-phenyl)sulfonyl]-methyl]-1H-[1,2,3]triazol-1-yl]-N-[1-(2-methoxy-ethyl)-3,3-dimethyl-piperidin-4-yl]-acetamid] | 100 | 
Cc1cccc(Cl)c1S(=O)(=O)Cc1noc(CC(=O)N(C2CCC(N(C)C)CC2)C2CC2)n1 (stereo not shown) [CC-108, 2-[3-[[(2-Chlor-6-methyl-phenyl)sulfonyl]-methyl]-[1,2,4]oxadiazol-5-yl]-N-cyclopropyl-N-(4-dimethylamino-cyclohexyl)-acetamid] | 88 | 
COc1cc(C)c(S(=O)(=O)Cc2noc(CC(=O)NC3CCC(N(C)C)CC3)n2)c(C)c1 (stereo not shown) [CC-05, N-(4-Dimethylamino-cyclohexyl)-2-[3-[[(4-methoxy-2,6-dimethyl-phenyl)sulfonyl]-methyl]-[1,2,4]oxadiazol-5-yl]-acetamid] | 100 | 
COc1cc(C)c(S(=O)(=O)Cc2c(C)nn(CC(=O)NC3CCN(C(C)=O)CC3(C)C)c2C)c(C)c1 (stereo not shown) [CC-179, N-(1-Acetyl-3,3-dimethyl-piperidin-4-yl)-2-[4-[[(4-methoxy-2,6-dimethyl-phenyl)sulfonyl]-methyl]-3,5-dimethyl-1 H-pyrazol-1-yl]-acetamid] | 44 | 
Cc1cc(S(=O)(=O)Cc2noc(CC(=O)NC3CCC(N4CCCC4)CC3)n2)c(C)cc1Cl (stereo not shown) [CC-70, 2-[3-[[(4-Chlor-2,5-dimethyl-phenyl)sulfonyl]-methyl]-[1,2,4]oxadiazol-5-yl]-N-(4-pyrrolidin-1-yl-cyclohexyl)-acetamid] | 93 | 
COc1cc(C)c(S(=O)(=O)Cc2noc(C(=O)NC3CCNCC3(C)C)n2)c(C)c1 (stereo not shown) [CC-17, N-(3,3-Dimethyl-piperidin-4-yl)-3-[[(4-methoxy-2,6-dimethyl-phenyl)sulfonyl]-methyl]-[1,2,4]oxa-diazol-5-carbonsäure amid] | 100 | 
O=C(Cc1nc(CS(=O)(=O)c2cccc(Cl)c2Cl)no1)NC1CCC(N2CCCC2)CC1 (stereo not shown) [CC-71, 2-[3-[[(2,3-Dichlor-phenyl)sulfonyl]-methyl]-[1,2,4]oxadiazol-5-yl]-N-(4-pyrrolidin-1-yl-cyclohexyl)-acetamid] | 73 | 
2-[3-[[(2-Chlor-6-methyl-phenyl)sulfonyl]-methyl]-[1,2,4]oxadiazol-5-yl]-N-(4-dimethylamino-cyclohexyl)-acetamid [CC-128] |  | 99
Cc1cc(S(=O)(=O)Cc2noc(CC(=O)NC3CCNCC3(C)C)n2)c(C)cc1Cl (stereo not shown) [CC-62, 2-[3-[[(4-Chlor-2,5-dimethyl-phenyl)sulfonyl]-methyl]-[1,2,4]oxadiazol-5-yl]-N-(3,3-dimethyl-piperidin-4-yl)-acetamid] | 54 | 

Further lines, results first:

inhibition at 10 µM [%] | % Inhibierung (human B1R) bei 10 µM [%] | Molecule
100 |  | COc1cc(C)c(S(=O)(=O)Cc2nc(C(=O)N(C)[C@H]3CCC[C@@H](N4CCN(C)CC4)C3)no2)c(C)c1 [SC-89, 5-[[(4-Methoxy-2,6-dimethyl-phenyl)sulfonyl]-methyl]-N-methyl-N-[(1S,3R)-3-(4-methyl-piperazin-1-yl)-cyclohexyl]-[1,2,4]oxadiazol-3-carbonsäure amid]
100 |  | COc1cc(C)c(S(=O)(=O)Cc2noc(CC(=O)N(C)C3CCN(c4ccncc4)C(=O)C3)n2)c(C)c1 (stereo not shown) [SC-85, 2-[3-[[(4-Methoxy-2,6-dimethyl-phenyl)sulfonyl]-methyl]-[1,2,4]oxadiazol-5-yl]-N-methyl-N-(2-oxo-1-pyridin-4-yl-piperidin-4-yl)-acetamid]
100 |  | COc1cc(C)c(S(=O)(=O)Cc2noc(C(=O)N3CCC(CN4CCN(C)CC4)C3)n2)c(C)c1 (stereo not shown) [SC-07, [3-[[(4-Methoxy-2,6-dimethyl-phenyl)sulfonyl]-methyl]-[1,2,4]oxadiazol-5-yl]-[3-[(4-methyl-piperazin-1-yl)-methyl]-pyrrolidin-1-yl]-methanon]
98 |  | COc1cc(C)c(S(=O)(=O)Cc2noc(CC(=O)N(C)C3CCN(C(=O)c4ccncc4)CC3)n2)c(C)c1 [SC-27, 2-[3-[[(4-Methoxy-2,6-dimethyl-phenyl)sulfonyl]-methyl]-[1,2,4]oxadiazol-5-yl]-N-methyl-N-[1-(pyridin-4-carbonyl)-piperidin-4-yl]-acetamid]
99 |  | COc1cc(C)c(S(=O)(=O)Cc2noc(CC(=O)N3CCC4(CC3)CCN(c3ccncc3)CC4)n2)c(C)c1 [SC-11, 2-[3-[[(4-Methoxy-2,6-dimethyl-phenyl)sulfonyl]-methyl]-[1,2,4]oxadiazol-5-yl]-1-(9-pyridin-4-yl-3,9-diazaspiro[5.5]undecan-3-yl)-ethanon]
